Laboratory results published in US9732063B2, “Kinase inhibitors” (RESPIVERT LIMITED, priority 2012, dated 2017).

Assays:
[1] = system: PBMCs; test: LPS-induced TNFα/IL-8 release in PBMC cells; assay type: cell-based; conditions: Homo sapiens, read-out: IC50 Values for Inhibition of Cytokine Release PBMCs IL-8
Description: Peripheral blood mononuclear cells (PBMCs) from healthy subjects are separated from whole blood using a density gradient (Lymphoprep, Axis-Shield Healthcare). The PBMCs are seeded in 96 well plates and treated with compounds at the desired concentration for 2 hours before addition of 1 ng/mL LPS (Escherichia Coli O111:B4 from Sigma Aldrich) for 24 hours under normal tissue culture conditions (37° C., 5% CO2). The supernatant is harvested for determination of IL-8 and TN Fa concentrations by sandwich ELISA (Duo-set, R&D systems) and read on the fluorescence microplate reader (Varioskan® Flash, ThermoFisher Scientific).

[2] = target: GSK3α (Homo sapiens (Human), UniProt P49840); test: GSK 3α enzyme inhibition (Z-LYTE FRET, Method 2); assay type: biochemical
Description: The enzyme inhibitory activities of compounds disclosed herein are determined by FRET using synthetic peptides labelled with both donor and acceptor fluorophores (Z-LYTE, Invitrogen Ltd., Paisley, UK).
The inhibitory activities of compounds of the invention against the GSK 3α enzyme isoform (Invitrogen), are evaluated by determining the level of activation/phosphorylation of the target peptide. The GSK3-α protein (500 ng/mL, 2.5 μL) is mixed with the test compound (2.5 μL at either 4 μg/mL, 0.4 μg/mL, 0.04 μg/mL, or 0.004 μg/mL) for 2 hr at RT. The FRET peptide (8 μM, 2.5 μL), which is a phosphorylation target for GSK3α, and ATP (40 μM, 2.5 μL) are then added to the enzyme/compound mixture and the resulting mixture incubated for 1 hr. Development reagent (protease, 5 μL) is added for 1 hr prior to detection in a fluorescence microplate reader (Varioskan® Flash, ThermoFisher Scientific).
In all cases, the site-specific protease cleaves non-phosphorylated peptide only and eliminates the FRET signal. Phosphorylation levels of each reaction are calculated using the ratio of coumarin emission (donor) over fluorescein emission (acceptor), for which high ratios indicate high phosphorylation and low ratios indicate low phosphorylation levels.

[3] = system: PBMCs; test: IL-2 and IFN gamma release in CD3/CD28 stimulated PBMC cells; assay type: cell-based; conditions: Homo sapiens
Description: PBMCs from healthy subjects are separated from whole blood using a density gradient (Lymphoprep, Axis-Shield Healthcare). Cells are added to a 96 well plate pre-coated with a mixture of CD3/CD38 monoclonal antibodies (0.3 μg/mL eBioscience and 3 μg/mL BD Pharmingen respectively). Compound at the desired concentration is then added to the wells and the plate left for 3 days under normal tissue culture conditions. Supernatants are harvested and IL-2 and IFN gamma release determined by Sandwich ELISA (Duo-set, R&D System). The IC50 is determined from the dose response curve.

Chain of GSK3α (P49840 whole entry): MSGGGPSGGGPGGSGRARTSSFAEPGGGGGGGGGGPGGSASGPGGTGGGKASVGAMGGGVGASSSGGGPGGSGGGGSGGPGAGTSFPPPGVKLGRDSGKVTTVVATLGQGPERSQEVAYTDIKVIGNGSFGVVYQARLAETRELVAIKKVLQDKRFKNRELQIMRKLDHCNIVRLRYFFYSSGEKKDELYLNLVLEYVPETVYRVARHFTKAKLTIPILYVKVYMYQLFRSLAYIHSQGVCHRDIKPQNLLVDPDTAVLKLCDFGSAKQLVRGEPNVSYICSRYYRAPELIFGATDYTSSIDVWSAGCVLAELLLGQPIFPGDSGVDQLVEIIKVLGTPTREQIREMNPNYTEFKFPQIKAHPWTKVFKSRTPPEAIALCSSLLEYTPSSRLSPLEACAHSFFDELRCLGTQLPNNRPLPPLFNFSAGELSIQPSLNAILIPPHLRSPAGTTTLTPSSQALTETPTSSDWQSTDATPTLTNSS

Structure (SMILES) | IC50 [1] [nM] | IC50 [2] [nM] | IC50 ([1]; LPS-stimulated PBMCs) [nM] | IC50 ([3]; read-out: IC50 Values for Inhibition of Cytokine Release PBMCs IFNγ) [nM] | IC50 ([3]; read-out: IC50 Values for Inhibition of Cytokine Release PBMCs IL-2) [nM]
COCCOCCOCCOc1cccc(Nc2nccc(Oc3ccc(NC(=O)Nc4cc(C(C)(C)C)nn4-c4ccc(OC)nc4)c4ccccc34)n2)c1 [Example 4, 1-(3-(tert-Butyl)-1-(6-methoxypyridin-3-yl)-1H-pyrazol-5-yl)-3-(4-((2-((3-(2-(2-(2-methoxy-ethoxy)ethoxy)ethoxy)phenyl)amino)pyrimidin-4-yl)oxy)naphthalen-1-yl)urea] | 1.7 | – | – | – | –
COc1ccc(-n2nc(C(C)(C)C)cc2NC(=O)Nc2ccc(Oc3ccnc(Nc4cccc(OC(N)=O)c4)n3)c3ccccc23)cn1 [Example 5, 3-(4-((4-(3-(3-(tert-Butyl)-1-(6-methoxypyridin-3-yl)-1H-pyrazol-5-yl)ureido)naphthalen-1-yl)oxy)pyrimidin-2-yl)amino)phenyl carbamate] | 1.9 | 306 | – | – | –
COc1ccc(-n2nc(C(C)(C)C)cc2NC(=O)Nc2ccc(Oc3ccnc(Nc4cccc(SCCO)c4)n3)c3ccccc23)cn1 [Example 6] | 1.6 | 501 | – | – | –
COc1ccc(-n2nc(C(C)(C)C)cc2NC(=O)Nc2ccc(Oc3ccnc(Nc4cccc([S+]([O-])C5CC5)c4)n3)c3ccccc23)cn1 (stereo not shown) [Example 7, 1-(3-(tert-Butyl)-1-(6-methoxypyridin-3-yl)-1H-pyrazol-5-yl)-3-(4-((2-((3-(cyclopropyl-sulfinyl)phenyl)amino)pyrimidin-4-yl)oxy)naphthalen-1-yl)urea] | 0.9 | 125 | – | – | –
COc1ccc(-n2nc(C(C)(C)C)cc2NC(=O)Nc2ccc(Oc3ccnc(Nc4cccc(S(=O)(=O)C5CC5)c4)n3)c3ccccc23)cn1 [Example 8, 1-(3-(tert-Butyl)-1-(6-methoxypyridin-3-yl)-1H-pyrazol-5-yl)-3-(4-((2-((3-(cyclopropyl-sulfonyl)phenyl)amino)pyrimidin-4-yl)oxy)naphthalen-1-yl)urea] | 1 | 258 | – | – | –
COc1cc(N=S(C)(C)=O)cc(Nc2nccc(Oc3ccc(NC(=O)Nc4cc(C(C)C)nn4-c4ccc(C)cc4)c4ccccc34)n2)c1 [Example 16, 3-(5-Methoxy((4-((4-(3-(3-isopropyl-1-(p-tolyl)-1H-pyrazol-5-yl)ureido)naphthalen-1-yl)-oxy)pyrimidin-2-yl)amino))phenyl-S,S-dimethyl-N-phenyl sulfoximine] | – | – | 1.7 | – | –
Cc1ccc(-n2nc(C(C)C)cc2NC(=O)Nc2ccc(Oc3ccnc(Nc4cccc(S(=O)(=O)C5CC5)c4)n3)c(Cl)c2Cl)cc1 [Example 24, 1-(2,3-Dichloro-4-((2-((3-(cyclopropylsulfonyl)phenyl)amino)pyrimidin-4-yl)oxy)phenyl)-3-(3-isopropyl-1-(p-tolyl)-1H-pyrazol-5-yl)urea] | 3.8 | 117 | – | – | –
COc1cc(Nc2nccc(Oc3ccc(NC(=O)Nc4cc(C(C)C)nn4-c4ccc(C)cc4)c(F)c3F)n2)cc(OCCN2CCOCC2)c1 [Example 25, 1-(2,3-Difluoro-4-((2-((3-methoxy-5-(2-morpholinoethoxy)phenyl)amino)pyrimidin-4-yl)oxy)phenyl)-3-(3-isopropyl-1-(p-tolyl)-1H-pyrazol-5-yl)urea] | 2 | 804 | – | – | –
COc1cc(N=S(C)(C)=O)cc(Nc2nccc(Oc3ccc(NC(=O)Nc4cc(C(C)C)nn4-c4ccc(C)cc4)c(Cl)c3Cl)n2)c1 [Example 26] | 3.9 | 426 | – | – | –
COCCOCCOCCOc1cc(Nc2nccc(Oc3ccc(NC(=O)Nc4cc(C(C)C)nn4-c4ccc(C)cc4)c4ncccc34)n2)cc(OC)c1 [Example 27, 1-(3-Isopropyl-1-(P-tolyl)-1H-pyrazol-5-yl)-3-(5-((2-((3-methoxy-5-(2-(2-(2-methoxy-ethoxy)ethoxy)ethoxy)phenyl)amino)pyrimidin-4-yl)oxy)quinolin-8-yl)urea] | 24.8 | > 10000 | – | – | –
COc1cc(Nc2nccc(Oc3ccc(NC(=O)Nc4cc(C(C)C)nn4-c4ccc(C)cc4)c4ncccc34)n2)cc(OCCN2CCOCC2)c1 [Example 28, 1-(3-Isopropyl-1-(P-tolyl)-1H-pyrazol-5-yl)-3-(5-((2-((3-methoxy-5-(2-morpholinoethoxy)-phenyl)amino)pyrimidin-4-yl)oxy)quinolin-8-yl)urea] | 24 | > 10000 | – | – | –
COCCOCCOCCSc1cc(Nc2nccc(Oc3ccc(NC(=O)Nc4cc(C(C)C)nn4-c4ccc(C)cc4)c4ccccc34)n2)cc(OC)c1 [Example 31, 1-(3-Isopropyl-1-(P-tolyl)-1H-pyrazol-5-yl)-3-(4-((2-((3-methoxy-5-((2-(2-(2-methoxy-ethoxy)ethoxy)ethyl)thio)phenyl)amino)pyrimidin-4-yl)oxy)naphthalen-1-yl)urea] | 4.4 | > 10000 | – | – | –
COCCOCCOCCOc1cc(Nc2nccc(Oc3ccc(NC(=O)Nc4cc(C(C)C)nn4-c4ccc(C)cc4)c4ccccc34)n2)cc(OC(F)(F)F)c1 [Example 33, 1-(3-Isopropyl-1-(p-tolyl)-1H-pyrazol-5-yl)-3-(4-((2-((3-(2-(2-(2-methoxyethoxyl)ethoxy)-ethoxy)-5-(trifluoromethoxy)phenyl)amino)pyrimidin-4-yl)oxy)naphthalen-1-yl)urea] | 8.7 | > 10000 | – | – | –
COCCOCCOCCOc1cc(Nc2nccc(Oc3ccc(NC(=O)Nc4cc(C(C)C)nn4-c4ccc(C)cc4)c4ccccc34)n2)cc(C(F)(F)F)c1 [Example 34] | 12.2 | > 10000 | – | – | –
COCCOCCOCCS(=O)(=O)c1cc(Nc2nccc(Oc3ccc(NC(=O)Nc4cc(C(C)C)nn4-c4ccc(C)cc4)c4ccccc34)n2)cc(OC)c1 [Example 36, 1-(3-Isopropyl-1-(p-tolyl)-1H-pyrazol-5-yl)-3-(4-((2-((3-methoxy-5-((2-(2-(2-methoxy-ethoxy)ethoxy)ethyl)sulfonyl)phenyl)amino)pyrimidin-4-yl)oxy)naphthalen-1-yl)urea] | 2.5 | 596 | – | – | –
Cc1ccc(-n2nc(C(C)(C)C)cc2NC(=O)Nc2ccc(Oc3ccnc(Nc4cccc(S(=O)(=O)C5CC5)c4)n3)c3ccccc23)cc1 [Example 46, 1-(3-(tert-Butyl)-1-(p-tolyl)-1H-pyrazol-5-yl)-3-(4-((2-((3-(cyclopropylsulfonyl)phenyl)-amino)pyrimidin-4-yl)oxy)naphthalen-1-yl)urea] | 2.7 | 172 | – | – | –
COCCOCCOCCOc1cc(F)cc(Nc2nccc(Oc3ccc(NC(=O)Nc4cc(C(C)(C)C)nn4-c4ccc(C)cc4)c4ccccc34)n2)c1 [Example 50, 1-(3-(tert-Butyl)-1-(p-tolyl)-1H-pyrazol-5-yl)-3-(4-((2-((3-fluoro-5-(2-(2-(2-methoxyethoxy)-ethoxy)ethoxy)phenyl)amino)pyrimidin-4-yl)oxy)naphthalen-1-yl)urea] | 8.6 | 3030 | – | – | –
COc1cc(Nc2nccc(Oc3ccc(NC(=O)Nc4cc(C(C)(C)C)nn4-c4ccc(C)cc4)c4ccccc34)n2)cc(OCCOCCOCCN2CCOCC2)c1 [Example 58, 1-(3-(tert-Butyl)-1-(p-tolyl)-1H-pyrazol-5-yl)-3-(4-((2-((3-methoxy-5-(2-(2-(2-morpholinoethoxy)ethoxy)ethoxy)phenyl)amino)pyrimidin-4-yl)oxy)naphthalen-1-yl)urea] | – | – | – | 1.3 | 39.6
COc1cc(Nc2nccc(Oc3ccc(NC(=O)Nc4cc(C(C)(C)C)nn4-c4ccc(C)cc4)c(Cl)c3Cl)n2)cc(OCCN2CCOCC2)c1 [Example 59, 1-(3-(tert-Butyl)-1-(p-tolyl)-1H-pyrazol-5-yl)-3-(2,3-dichloro-4-((2-((3-methoxy-5-(2-morpholinoethoxy)phenyl)amino)pyrimidin-4-yl)oxy)phenyl)urea] | 4.2 | – | – | – | –
COCCOCCOCCN(C)c1cc(Nc2nccc(Oc3ccc(NC(=O)Nc4cc(C(C)(C)C)nn4-c4ccc(C)cc4)c4ccccc34)n2)cc(OC)c1 [Example 67, 1-(3-(tert-Butyl)-1-(p-tolyl)-1H-pyrazol-5-yl)-3-(4-((2-((3-methoxy-5-((2-(2-(2-methoxyethoxy)ethoxy)ethyl)(methyl)amino)phenyl)amino)pyrimidin-4-yl)oxy)naphthalen-1-yl)urea] | 3.5 | – | – | – | –
COc1cc(Nc2nccc(Oc3ccc(NC(=O)Nc4cc(C(C)(C)C)nn4-c4ccc(C)cc4)c(Cl)c3Cl)n2)cc(S(=O)(=O)C2CC2)c1 [Example 68, 1-(3-(tert-Butyl)-1-(p-tolyl)-1H-pyrazol-5-yl)-3-(2,3-dichloro-4-((2-((3-(cyclopropylsulfonyl)-5-methoxyphenyl)amino)pyrimidin-4-yl)oxy)phenyl)urea] | 5.2 | – | – | – | –
